Experimental data published in patent US6355619B1, “Peptide tumor cell growth inhibitors” (Board of Regents, The University of Texas System, priority 1996, dated 2002).

Assays:
[1] = target: T1, C5a binding to human neutrophils (Homo sapiens, UniProt P21730); test: Binding of 125I-C5a to human neutrophils; details: 100 μM peptide; 0.25 nM 125I-labeled C5a
T1 construct: endogenous in cells; host or cells: human blood neutrophils
From the text: To examine the specificity of Ac-RRWWCR-NH2 (SEQ ID NO:1) on ligand-receptor binding, the inventors tested whether the peptide reduced the binding of human ^125I-C5a or ^3H-leukotriene B4 to human neutrophils.
Recombinant human fifth component of complement (C5a) (Sigma Chemical Co., St. Louis, Mo.) was radioiodinated enzymatically using Enzymobead (Bio Rad, Richmond, Calif.). Tritiated leukotriene B4 was purchased from Du Pont Co., Wilmington, Del. Binding assays for C5a and leukotriene B4 were performed as described for IL-8 binding in Example I, except that the buffers used were PBS containing 1 mM CaCl2, 0.5 mM MgCl2, 0.5% BSA, and HBSS containing 0.1% ovulabumin and 10 mM HEPES (pH7.3), respectively, as previously described (Braunwalder et al., 1992; Sherman et al., 1988). The radioactivity was measured with liquid scintillation counter for the leukotriene B4 assay. The binding of both ligands were saturable and inhibited by the non-labeled agonists in dose dependent manners.

RPMI-7951 melanoma cells = test: Cell growth assay, RPMI-7951; assay type: cell-based
Procedure: FIG. 15B. The effect of Antileukinate on the growth of melanoma cells. Melanoma cell lines and a control liver cancer cell line (2×10^4 cells/well) in […] were cultured in a 24 well tissue culture plate in the presence of various concentrations of Antileukinate for 3 d. The culture media were changed to fresh media containing the same concentration of Antileukinate every 24 hr during the incubation period. After incubation, the cells were collected and the cell number was counted using a hemocytometer. RPMI-7951 cell line. Analysis of variance was used for multiple comparison.
The cell lines (2×10^4 cells/well) in 500 μl cell culture medium were grown in 24 well tissue culture plates. After the cells adhered to the plate, the supernatants were aspirated and 500 μl of media containing various concentrations of Antileukinate were added to the wells. The cells were cultured for period indicated in the text. The culture media were changed to fresh media every 24 hr. After incubation, the cells were detached with trypsin-EDTA solution (Life Technologies Inc., Gaithersburg, Md., containing 0.05% of trypsin and 0.53 mM of EDTA in Hanks Balanced Salt Solution without Ca^2+ and Mg^2+) and the cell number was counted using a hemocytometer.

[2] = tested on: adenocarcinoma from stomach AGS; test: Tumor cell growth, AGS; assay type: cell-based
human neutrophils = test: Binding of the peptide to human neutrophils
[3] = Hs 294T culture, 100 μM peptide
Procedure: Analysis for the breakdown of Antileukinate in the culture of Hs 294T cells. A total concentration of tritium labeled and unlabeled Antileukinate of 100 μM, was added to the culture of Hs 294T cells. Aliquots of medium were removed at different times and chromatographed on an HPLC Bondapak C18 reversed phase column. The peptides were eluted using a gradient from 0.1% TFA to 80% acetonitrile in 0.1% TFA. One milliliter fractions were collected and measured for their radioactivity using a liquid scintillation counter. The chromatographs show the elution volume of the radioactivity at different times after addition to the cells.
Hs 294T and Hep G2 cells, 2×10^4 cell/well, were cultured in 24 well tissue culture plates for 24 hr. Then the culture media were replaced with media containing tritiated Antileukinate, 0.2 μCi, mixed with 100 μM unlabeled peptide in each well. The cells were then cultured for the indicated periods. The supernatants were collected and stored at −70° C. until use. The breakdown of Antileukinate during the cell culture was analyzed on high performance liquid chromatography (HPLC) using an analytical C18 reversed phase column (Waters Co., New Bedford, Mass.). […] One milliliter fractions were collected and measured for their radioactivity content using a liquid scintillation counter.

[4] = 100 μM peptide, 72 hr, trypan blue dye exclusion
Procedure: The viability of Hs 294T cells after the culture for 72 hr in the presence of Antileukinate. Melanoma cell line Hs 294T was cultured in the presence of various concentrations of Antileukinate for 72 hr. The viability of the cells was measured by means of trypan blue dye exclusion.

T1 sequence (P21730 whole entry): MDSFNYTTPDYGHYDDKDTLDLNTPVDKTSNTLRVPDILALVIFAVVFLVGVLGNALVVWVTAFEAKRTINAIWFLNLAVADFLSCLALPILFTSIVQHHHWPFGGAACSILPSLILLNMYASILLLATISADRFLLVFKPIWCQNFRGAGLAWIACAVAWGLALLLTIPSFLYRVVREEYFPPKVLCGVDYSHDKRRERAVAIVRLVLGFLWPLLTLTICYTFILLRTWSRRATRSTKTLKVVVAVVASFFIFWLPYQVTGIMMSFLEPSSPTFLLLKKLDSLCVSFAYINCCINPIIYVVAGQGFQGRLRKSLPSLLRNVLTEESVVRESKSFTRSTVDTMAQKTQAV

Substance: RRWWCR [Ac-RRWWCR-NH2]
- effect on binding of C5a to neutrophils [1]: did not affect the binding
- cell growth at 100 μM peptide (RPMI-7951 melanoma cells; RPMI-7951, 100 μM): suppressed the cell growth almost completely
- EC50 (RPMI-7951 melanoma cells; RPMI-7951, 72 hr, medium changed every 24 hr, read-out: ED50, cell growth inhibition): 31 µM
- effect on cell growth [2]: inhibits growth
- binding of the peptide to human neutrophils (human neutrophils): binds to human neutrophils
- time within which the peptide is substantially eliminated from the culture [3]: ≤ 24 h
- decrease of the major radioactivity peak (intact peptide) ([3]; after 24 hr): more than 85%
- viability of Hs 294T cells [4]: greater than 92%
